Results as given in PubChem BioAssay AID1918931 (Molecular Pharmacology Branch, DTP, NCI, 2023).
Where “and” joins values, the source holds several entries; their conditions need not be identical. Identical values can stand only once.

System: 138582-337-R-J1-PDC complex spheroid viability
Assay: Anticancer human tumor 138582-337-R-J1-PDC patient-derived Merkel cell tumor cell line growth inhibition
Conditions: for viability, T/C: stronger effect = lower value
Excerpt: Multicellular complex tumor spheroid response to LSD1 Inhibitor Iadademstat in combination with a variety of drugs and investigational agents in selected tumor cell lines
The current study was undertaken to assess response to LSD1 inhibitors in combination with standard-of-care drugs and investigational agents in solid tumor complex spheroid models as well as in the K-562 leukemia. Complex spheroids include a stromal component modeled by human endothelial cells (HUVEC) and fibroblasts modeled by human mesenchymal stem cells (MSCs). The concentration ranges selected for each drug and investigational agent were based upon clinically achievable concentrations if the clinical Cmax of the agent was known.
Compounds. The drugs and investigational agents used in this study are listed on Table 1. All of the agents used, including staurosporine (NSC755774) and gemcitabine (NSC613327), were obtained from the Developmental Therapeutics Program, NCI. FDA-approved anticancer drugs are available from the NCI at http://dtp.nci.nih.gov/branches/dscb/oncology_drugset_explanation.html. Drugs and investigational agents were >95% pure by proton nuclear magnetic resonance (NMR) and liquid chromatography/mass spectrometry (LC/MS). Stock solutions were prepared at 400x in DMSO, stored at -70 degrees C, and diluted in fresh medium prior to their use. The final concentration of DMSO in cell culture wells never exceeded 0.25% (v/v). The FDA-approved anticancer drug set is available from the Developmental Therapeutics Program at https://dtp.cancer.gov/organization/dscb/obtaining/available_plates.htm. All drugs and investigational agents were tested over a range starting from a high concentration at or near the clinical Cmax and decreasing in half-log increments. If the clinical Cmax for an agent had not been determined, the highest concentration tested was 10 microM.
Cell Lines. The patient-derived cancer cell (PDC) lines: 292921-168-R-J2-PDC, K24384-001-R-PDC, and 521955-158-R2-J5-PDC pancreatic carcinomas, 556581-035-R-J1 ovarian carcinoma, 324938-238-R-J1-PDC, 855422-203-R-J1-PDC and 883617-216-R-J1-PDC urothelial bladder carcinomas, 743489-274-T-PDC renal cell carcinoma, 138582-R-J1 Merkel cell tumor, K60290-347-R-J1 and K57222-313-R-J1-PDC glioblastomas, 653999-131-R-J2-PDC, LG0703-F948-PDC, and 349418-098-R-PDC non-small cell lung carcinomas, 885512-296-R-J2-PDC, 171881-019-R-J1-PDC breast carcinomas and 186277-243-T-J2-PDC and 233499-124-R-J2-PDC colon carcinomas were obtained from the NCI Patient-Derived Models Repository (PDMR, https://pdmr.cancer.gov). The established cell lines NCI/ADR-RES (RRID:CVCL_14520 and OVCAR-5 (RRID:CVCL_1628) ovarian carcinomas, 786-O (RRID:CVCL_1051) and A498 (RRID:CVCL_A498) renal cell carcinoma, NCI-H211 (ATCC, cat. CRL-5824; RRID:CVCL_1529), NCI-H196 (ATCC, cat. CRL-5823, RRID:CVCL_1509), SW 1271 (ATCC, cat. CRL-2177, RRID:CVCL_1716) and NCI-H1876 (ATCC, cat. CRL-5902, RRID:CVCL_1503) small cell lung carcinomas, MDA-MB-231 (RRID:CVCL_0062) and MDA-MB-468 (RRID:CVCL_0419)breast carcinomas (10-12). Pooled donor human umbilical vein endothelial cells (HUVEC, Lonza, cat. CC-2519) and human mesenchymal stem cells (hMSC, Lonza, cat. PT-2501) were purchased from Lonza (Walkersville, MD).
Cell Culture. All cells were maintained in an incubator at 37 degrees C and 5% CO2 with 95% humidity. The PDC lines were cultured according to standard operating procedures established by the NCI PDMR (https://pdmr.cancer.gov). Briefly all PDCs were thawed and cultured in Matrigel-coated flasks prepared with a working solution of 1X Ham's F-12 nutrient mix, without supplementation (Invitrogen, Waltham, MA, cat. 11765054), 100 U/mL penicillin-streptomycin (Invitrogen, cat. 15140122), and 2.5% Matrigel (Corning Inc., Corning, NY, cat. 354248) for the first three passages. […]

[1] = curve of first compound, second compound 0.1 µM
[2] = curve of first compound, second compound 0.316 µM
[3] = curve of first compound, second compound 1 µM
[4] = curve of first compound, second compound 3.16 µM
[5] = curve of first compound, second compound 10 µM
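Also: spheroids exposed to agents for 7 days.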
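For viability, T/C in this document: 100% = DMSO vehicle control viability.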

Compound: O=C(C=Cn1cnc(-c2cc(C(F)(F)F)cc(C(F)(F)F)c2)n1)NNc1cnccn1 + NC1CCC(NC2CC2c2ccccc2)CC1
- IC50 [1]: 0.0084 µM
- IC50 [2]: 0.00948 µM
- IC50 [3]: 0.00739 µM
- IC50 [4]: 0.00626 µM
- IC50 [5]: 0.00557 µM
- viability, T/C (second compound 0.1 µM, first compound 0.00316 µM): 73.5%
- viability, T/C (second compound 0.1 µM, first compound 0.01 µM): 45.8%
- viability, T/C (second compound 0.1 µM, first compound 0.0316 µM): 21.6%
- viability, T/C (second compound 0.1 µM, first compound 0.1 µM): 18.4%
- viability, T/C (second compound 0.1 µM, first compound 0.316 µM): 22.6%
- viability, T/C (second compound 0.1 µM, first compound 1 µM): 17.4%
- viability, T/C (second compound 0.316 µM, first compound 0.00316 µM): 67%
- viability, T/C (second compound 0.316 µM, first compound 0.01 µM): 49.1%
- viability, T/C (second compound 0.316 µM, first compound 0.0316 µM): 21.2%
- viability, T/C (second compound 0.316 µM, first compound 0.1 µM): 20.7%
- viability, T/C (second compound 0.316 µM, first compound 0.316 µM): 30.3%
- viability, T/C (second compound 0.316 µM, first compound 1 µM): 21.7%
- viability, T/C (second compound 1 µM, first compound 0.00316 µM): 82.5%
- viability, T/C (second compound 1 µM, first compound 0.01 µM): 38.4%
- viability, T/C (second compound 1 µM, first compound 0.0316 µM): 21.4%
- viability, T/C (second compound 1 µM, first compound 0.1 µM): 20.5%
- viability, T/C (second compound 1 µM, first compound 0.316 µM): 21.6%
- viability, T/C (second compound 1 µM, first compound 1 µM): 23.1%
- viability, T/C (second compound 3.16 µM, first compound 0.00316 µM): 61%
- viability, T/C (second compound 3.16 µM, first compound 0.01 µM): 42.4%
- viability, T/C (second compound 3.16 µM, first compound 0.0316 µM): 19%
- viability, T/C (second compound 3.16 µM, first compound 0.1 µM): 20.1%
- viability, T/C (second compound 3.16 µM, first compound 0.316 µM): 22.8%
- viability, T/C (second compound 3.16 µM, first compound 1 µM): 24.7%
- viability, T/C (second compound 10 µM, first compound 0.00316 µM): 75%
- viability, T/C (second compound 10 µM, first compound 0.01 µM): 24.6%
- viability, T/C (second compound 10 µM, first compound 0.0316 µM): 11.9%
- viability, T/C (second compound 10 µM, first compound 0.1 µM): 18%
- viability, T/C (second compound 10 µM, first compound 0.316 µM): 24.5%
- viability, T/C (second compound 10 µM, first compound 1 µM): 31.8%

Compound: Cn1ncnc1C1c2n[nH]c(=O)c3cc(F)cc(c23)NC1c1ccc(F)cc1 (configuration not stated)
- viability, T/C (compound 0.000316 µM): 96.7% and 103%
- viability, T/C (compound 0.001 µM): 93.5% and 95.9%
- viability, T/C (compound 0.00316 µM): 83.5% and 99.5%
- viability, T/C (compound 0.01 µM): 86.7% and 92.9%
- viability, T/C (compound 0.0316 µM): 94.4% and 70.4%
- viability, T/C (compound 0.1 µM): 91.1% and 67.1%
- IC50 (curve of compound): > 0.1 µM

Compound: O=C(C=Cc1cccc(S(=O)(=O)Nc2ccccc2)c1)NO + NC1CCC(NC2CC2c2ccccc2)CC1
- IC50 [1]: 0.58 µM
- IC50 [2]: 0.678 µM
- IC50 [3]: 0.562 µM
- IC50 [4]: 0.483 µM
- IC50 [5]: 0.408 µM
- viability, T/C (second compound 0.1 µM, first compound 0.00949 µM): 82.7%
- viability, T/C (second compound 0.1 µM, first compound 0.03 µM): 90.2%
- viability, T/C (second compound 0.1 µM, first compound 0.0949 µM): 96%
- viability, T/C (second compound 0.1 µM, first compound 0.3 µM): 75.3%
- viability, T/C (second compound 0.1 µM, first compound 0.949 µM): 30.4%
- viability, T/C (second compound 0.1 µM, first compound 3 µM): 2.19%
- viability, T/C (second compound 0.316 µM, first compound 0.00949 µM): 69.6%
- viability, T/C (second compound 0.316 µM, first compound 0.03 µM): 89.3%
- viability, T/C (second compound 0.316 µM, first compound 0.0949 µM): 95.8%
- viability, T/C (second compound 0.316 µM, first compound 0.3 µM): 93.6%
- viability, T/C (second compound 0.316 µM, first compound 0.949 µM): 34.7%
- viability, T/C (second compound 0.316 µM, first compound 3 µM): 2.29%
- viability, T/C (second compound 1 µM, first compound 0.00949 µM): 85.3%
- viability, T/C (second compound 1 µM, first compound 0.03 µM): 92.6%
- viability, T/C (second compound 1 µM, first compound 0.0949 µM): 97.8%
- viability, T/C (second compound 1 µM, first compound 0.3 µM): 66.5%
- viability, T/C (second compound 1 µM, first compound 0.949 µM): 34.1%
- viability, T/C (second compound 1 µM, first compound 3 µM): 1.94%
- viability, T/C (second compound 3.16 µM, first compound 0.00949 µM): 76.5%
- viability, T/C (second compound 3.16 µM, first compound 0.03 µM): 92.3%
- viability, T/C (second compound 3.16 µM, first compound 0.0949 µM): 79.5%
- viability, T/C (second compound 3.16 µM, first compound 0.3 µM): 64.7%
- viability, T/C (second compound 3.16 µM, first compound 0.949 µM): 28.7%
- viability, T/C (second compound 3.16 µM, first compound 3 µM): 0.44%
- viability, T/C (second compound 10 µM, first compound 0.00949 µM): 73.9%
- viability, T/C (second compound 10 µM, first compound 0.03 µM): 77.6%
- viability, T/C (second compound 10 µM, first compound 0.0949 µM): 82.2%
- viability, T/C (second compound 10 µM, first compound 0.3 µM): 52.3%
- viability, T/C (second compound 10 µM, first compound 0.949 µM): 29.9%
- viability, T/C (second compound 10 µM, first compound 3 µM): 0.47%
